Assay results published in patent publication US20240191273A1, “ANTHOCYANIN BIOPRODUCTION IN A CELL-FREE MANUFACTURING SYSTEM” (DEBUT BIOTECHNOLOGY, INC., priority 2021, published 2024).

Legend:
[1] = solubility of cyanidin in water; format: physicochemical
[2] = stability of cyanidin in solution; format: physicochemical

For `Oc1cc(O)c2cc(O)c(-c3ccc(O)c(O)c3)[o+]c2c1` [cyanidin], the solubility [1] was 49 µg/mL, the stability in water ([2]; in water at 49 mg/L) was “degrade within minutes” and the “pH of highest stability” value ([2]; pH of the solution) was < 5.0.
